# Measured values reported in patent US20090036422A1 (priority 2007, published 2009).
# Where a name gives a salt, the structure may show the parent alone.
# Biological target: T1, human orexin-2 (hOX2) receptor (Homo sapiens, UniProt O43614)
# T1 construct: expressed in transfected cells
# T1 sequence (O43614 1-444): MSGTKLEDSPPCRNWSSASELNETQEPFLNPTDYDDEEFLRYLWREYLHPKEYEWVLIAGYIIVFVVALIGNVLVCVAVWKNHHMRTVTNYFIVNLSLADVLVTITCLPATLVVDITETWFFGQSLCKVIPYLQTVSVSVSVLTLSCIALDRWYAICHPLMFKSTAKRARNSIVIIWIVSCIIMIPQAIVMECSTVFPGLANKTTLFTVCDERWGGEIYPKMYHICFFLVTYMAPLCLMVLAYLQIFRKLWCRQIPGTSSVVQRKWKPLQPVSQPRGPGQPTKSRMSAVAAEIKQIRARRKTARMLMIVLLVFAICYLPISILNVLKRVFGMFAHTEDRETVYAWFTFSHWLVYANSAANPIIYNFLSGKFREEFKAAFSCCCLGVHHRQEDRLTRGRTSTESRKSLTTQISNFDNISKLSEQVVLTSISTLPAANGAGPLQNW
# Experiment: Intracellular Ca2+ mobilization assay (FLIPR), CHO(dHFr-) cells expressing hOX2, orexin-A at EC80 as agonist
# Type: cell-based
# Settings: Kb=IC50/(1+[A]/EC50); CHO(dHFr-)-OX2R cells, antagonist applied 25 min before orexin-A EC80
# Procedure, shortened: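 Fluo-4-loaded CHO(dHFr−) cells stably expressing hOX2 were preincubated 25 min at 37 °C with antagonist (11 concentrations, 0.0001–10 μM), then challenged with orexin-A at its daily-determined EC80. Peak fluorescence over basal read by FLIPR; IC50 from Hill fit, Kb via Kb=IC50/(1+[A]/EC50).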
row,Molecule,Kb [µM]
1,"N[C@H](C(=O)N(CCc1ccc(F)cc1)c1ccc2c(c1)CCO2)c1ccccc1 [Example 239, (S)-2-Amino-N-(2,3-dihydro-benzofuran-5-yl)-N-[2-(4-fluoro-phenyl)-ethyl]-2-phenyl-acetamide hydrochloride]",0.025
2,"Cc1ccc(CCN(C(=O)C(NCC2CCCO2)c2ccccc2)c2ccc(C)c(C)c2)cc1 (centres unmarked) [Example 127, N-(3,4-Dimethyl-phenyl)-2-phenyl-2-[(tetrahydro-furan-2-ylmethyl)-amino]-N-(2-p-tolyl-ethyl)-acetamide]",0.0222
3,"CCc1ccc(N(CCc2ccc(F)cc2)C(=O)[C@@H](N)c2ccccc2)cc1 [Example 244, (S)-2-Amino-N-(4-ethyl-phenyl)-N-[2-(4-fluoro-phenyl)-ethyl]-2-phenyl-acetamide hydrochloride]",0.049
4,"Cc1ccc(N(CCc2cc(F)cc(Cl)c2)C(=O)[C@@H](N)c2ccccc2)cc1C [Example 209, (S)-2-Amino-N-[2-(3-chloro-5-fluoro-phenyl)-ethyl]-N-(3,4-dimethyl-phenyl)-2-phenyl-acetamide hydrochloride]",0.0486
5,"Cc1ccc(N(CCc2cccc(Cl)c2)C(=O)[C@@H](N)c2ccccc2)cc1C [Example 183, (S)-2-Amino-N-[2-(3-chloro-phenyl)-ethyl]-N-(3,4-dimethyl-phenyl)-2-phenyl-acetamide hydrochloride]",0.0496

# Other lines, results leading:
row,Kb [µM],Molecule
1,0.0285,"COc1cc(N(CCc2ccc(C(F)(F)F)cc2)C(=O)C(N)c2ccccc2)ccc1Cl (centres unmarked) [Example 65, 2-Amino-N-(4-chloro-3-methoxy-phenyl)-2-phenyl-N-[2-(4-trifluoromethyl-phenyl)-ethyl]-acetamide]"
2,0.0231,"COc1cccc(N(CCc2ccc(C(F)(F)F)cc2)C(=O)C(N)c2ccccc2)c1 (centres unmarked) [Example 60, 2-Amino-N-(3-methoxy-phenyl)-2-phenyl-N-[2-(4-trifluoromethyl-phenyl)-ethyl]-acetamide]"
3,0.051,"Cc1ccc(N(CCc2ccc(C(F)(F)F)cc2)C(=O)[C@@H](N)c2ccc(F)cc2)cc1C [Example 154, (S)-2-Amino-N-(3,4-dimethyl-phenyl)-2-(4-fluoro-phenyl)-N-[2-(4-trifluoromethyl-phenyl)-ethyl]-acetamide]"
4,0.0151,"COc1cc(N(CCc2ccc(C(F)(F)F)cc2)C(=O)[C@@H](N)c2ccccc2)ccc1C [Example 162, (S)-2-Amino-N-(3-methoxy-4-methyl-phenyl)-2-phenyl-N-[2-(4-trifluoromethyl-phenyl)-ethyl]-acetamide]"
5,0.0364,"NC(C(=O)N(CCc1ccc(C(F)(F)F)cc1)c1ccc2c(c1)CCCC2)c1ccccc1 (centres unmarked) [Example 137, 2-Amino-2-phenyl-N-(5,6,7,8-tetrahydro-naphthalen-2-yl)-N-[2-(4-trifluoromethyl-phenyl)-ethyl]-acetamide]"
6,0.0018,"COc1ccc(N(CCc2ccc(C(F)(F)F)cc2)C(=O)C(N)c2ccccc2)cc1OC (centres unmarked) [Example 45, 2-Amino-N-(3,4-dimethoxy-phenyl)-2-phenyl-N-[2-(4-trifluoromethyl-phenyl)-ethyl]-acetamide]"
7,0.0698,"Cc1cc(N(CCc2ccc(C(F)(F)F)cc2)C(=O)C(N)c2ccccc2)ccc1F (centres unmarked) [Example 83, 2-Amino-N-(4-fluoro-3-methyl-phenyl)-2-phenyl-N-[2-(4-trifluoromethyl-phenyl)-ethyl]-acetamide]"
8,0.022,"COc1cc(N(CCc2ccc(C(F)(F)F)cc2)C(=O)C(N)c2ccccc2)ccc1F (centres unmarked) [Example 104, 2-Amino-N-(4-fluoro-3-methoxy-phenyl)-2-phenyl-N-[2-(4-trifluoromethyl-phenyl)-ethyl]-acetamide]"

# System: rat
# Experiment: not given
# Settings: intracerebroventricular (icv) administration; cited from earlier work
row,Molecule,reduction of total REM sleep [%]
1,"OX-A: ""orexin-A/hypocretin1 (OX-A, 33 amino acids)"", hypothalamic neuropeptide; ""Orexin A ... was used as agonist"" (QPLPDCCRQKTCSCRLYELLHGAGNHAAGILTL; Orexin-A; UniProt O43612 34-66, looked up)",84
